{
  "source": "patent US20190209569A1",
  "about": "“PHARMACEUTICAL COMPOSITION FOR SUPPRESSING APPETITE, CONTAINING N2-(M-TRIFLUOROBENZYL), N6-(P-NITROBENZYL)PURINE (TNP) OR PHARMACEUTICALLY ACCEPTABLE SALT THEREOF AS ACTIVE INGREDIENT” (priority 2016, published 2019)",
  "key": {"food intake": {"tested_on": "food intake", "assay": "Effect of single administration of TNP in the third ventricle on food intake", "assay_type": "in vivo, mouse", "method": "(§1) Adult male C57BL/6 mice were purchased from Orient Bio (Gyeonggi-do, Korea) and the mice were allowed to take the standard diet (Agri Purina, Seoul, Korea) freely. The mice were raised in the controlled condition (temperature: 22±1° C., light/dark cycle: 12/12 hr (light condition: 8:00 am˜8:00 pm)). A cannula was intubated in the third ventricle of the mouse for the administration of TNP. For the cannulation, the mouse was anesthetized with a mixture of Zoletil and Rumpun (2:1 v/v, 10 μl/g weight) and then a permanent 26-gauge stainless steel cannula was inserted in the third ventricle of the mouse. The insertion position of the cannula was 1.8 mm back from the bregma and 5.0 mm down from the sagittal sinus. The exact cannulation site was confirmed by the positive dipsogenic response after the administration of angiotensin II (50 ng). Only those mice that were confirmed to have cannulae in the correct location were used for data analysis. After the 7 day recovery period, the mice were massaged every day for 1 week in order to minimize the stress response to the experiment.\nThe mice cannulated in Example 1 were fasted for 18 hours and then administered at different concentrations of TNP (0.4 pg, 0.04 ng, and 0.4 ng; Calbiochem) in the early light phase (9:00 am˜11:00 am). Before the administration, TNP was dissolved in 0.9% saline. 2 μl of the TNP dissolved in saline at different concentrations (0.4 pg, 0.04 ng, and 0.4 ng) was administered via the cannula into the third ventricle. For the control, the same amount of saline was administered.\n5 mice treated with saline, 5 mice treated with 0.4 pg of TNP, 5 mice treated with 0.04 ng of TNP, and 4 mice treated with 0.4 ng of TNP were fasted for 18 hours as described in Example 2. TNP was administered once into the third ventricle of the mice. Then, the mice were allowed to take food freely and the food intake was measured for 24 hours.\nAll experimental values of the present invention were expressed as mean±standard error ([…]). Statistical analysis was performed by Student's t-test. […]"}, "weight gaining": {"tested_on": "weight gaining", "assay": "Effect of single administration of TNP in the third ventricle on weight control", "assay_type": "in vivo, mouse", "conditions": "mice fasted for 18 hours; single administration of 0.4 pg, 0.04 ng or 0.4 ng into the third ventricle; observed for 24 hours; FIG. 2", "method": "as §1\nThe mice cannulated in Example 1 were fasted for 18 hours and then administered at different concentrations of TNP (0.4 pg, 0.04 ng, and 0.4 ng; Calbiochem) in the early light phase (9:00 am˜11:00 am). Before the administration, TNP was dissolved in 0.9% saline. […]"}, "[1]": {"conditions": "single administration into the third ventricle, 0.4 pg, 0.04 ng, 0.4 ng, vs saline"}},
  "data": [
    {"smiles": "O=[N+]([O-])c1ccc(CNc2nc(NCc3cccc(C(F)(F)F)c3)nc3[nH]cnc23)cc1", "note": "[TNP, N2-(m-Trifluorobenzyl), N6-(p-nitrobenzyl)purine]", "values": [
      {"measurement": "food intake compared to the mice administered with saline", "setting": "food intake; male C57BL/6 mice fasted for 18 hours, single administration of 0.4 pg, 0.04 ng or 0.4 ng into the third ventricle, food intake measured for 24 hours, FIG. 1", "value": "significantly reduced"},
      {"measurement": "time after administration at which the food intake reduction effect was still maintained", "setting": "food intake; [1]", "value": "≥ 24", "unit": "h"},
      {"measurement": "time after administration from which the food intake reduction effect was significant", "setting": "food intake; [1]", "value": 2, "unit": "h"},
      {"measurement": "weight gaining compared to the control mice treated with saline", "setting": "weight gaining", "value": "significantly suppressed"}
    ]}
  ]
}
